Read-outs that look alike come from different tables or passages of the source.

In the assay the test system is P. falciparum strain W2 (chloroquine-resistant). Put plainly: In vitro antiplasmodial activity, SYBR Green-based assay. Type of assay: cell-based. The note with it: for SI (selectivity index): ratio LD50 (WI-26VA4) / IC50 (P. falciparum W2). As for the experimental part:
Ring-stage parasites were equally distributed in 96-well microculture plates. Serial dilutions of the compounds were performed ranging from 0.01 to 100 μg/mL. […] A fluorometer (Fluoroskan Ascent, Thermo Laboratories) with excitation at 485 nm and emission at […] was used to determine the viability of the parasites. All experiments were performed in triplicates.
Selectivity index (SI) is the ratio between the values of LD50 and IC50 […] of each compound tested.
IC50 and LD50 were determined using the equation of the curve obtained by plotting parasitemia reduction (%) or cellular death (%) vs. the concentration of the compound (log scale) using the GraphPad Prism software (version 5.0 for Windows, San Diego, California, USA). Due to the non-normality of the data distribution, the comparison of IC50 and LD50 between morpholine and piperidine was analyzed using the nonparametric Mann-Whitney U test. Statistical significance was defined at 5% (p<0.05).

Setting [1] is: Plasmodium falciparum, W2, read-out: IC50 ± SD (drug concentration that reduced parasite viability in 50%), P. falciparum W2 chloroquine-resistant, SYBR, mean and SD of triplicate experiments.
Setting [2] is: read-out: IC50 ± SD (drug concentration that reduced parasite viability in 50%), P. falciparum W2 chloroquine-resistant, SYBR, mean and SD of triplicate experiments.

Take `CCN(CC)CCCC(C)Nc1ccnc2cc(Cl)ccc12` (stereo not drawn) [Chloroquine (CQ), Chloroquine, reference compound]: the IC50 (Plasmodium falciparum, W2, read-out: IC50 ± SD (drug concentration that reduced parasite viability in 50%)) was found to be 0.92 ± 0.01 µM.

Take `O=C(CCN1CCOCC1)c1ccccc1` [Compound 1, 3-(morpholin-4-yl)-1-phenylpropan-1-one]: the IC50 is below 0.98 µM under setting [1] and 0.98 ± 0.01 µM under setting [2].

For the molecule `O=C(CCN1CCCCC1)c1ccccc1` [Compound 2, 1-phenyl-3-(piperidin-1-yl)propan-1-one], the “SI (selectivity index)” value is on record as 9.46. Also, the IC50 under setting [1] is below 3.59 µM. In addition, the IC50 under setting [2] came to 3.59 ± 0.08 µM.

On to `CC(CN1CCOCC1)C(=O)c1ccccc1` (stereo not drawn) [Compound 3, 2-methyl-3-(morpholin-4-yl)-1-phenylpropan-1-one], for which the “SI (selectivity index)” value is given as above 3.07. Besides, the IC50 under setting [1] stood at 32.53 ± 0.02 µM.

As for `CC(CN1CCCCC1)C(=O)c1ccccc1` (stereo not drawn) [Compound 4, 2-methyl-1-phenyl-3-(piperidein-1-yl)propan-1-one], the IC50 under setting [1] was above 1 µM and the IC50 under setting [2] came out at 0.78 ± 0.09 µM.

As to `CCCCCCC(CN1CCCCC1)C(C)=O` (stereo not drawn) [Compound 8, 3[(piperdin-1-yl)methyl]nonan-2-one], the “SI (selectivity index)” value is 0.81. In addition, the IC50 under setting [1] amounted to 48 ± 18.5 µM.

Values taken from PMC9549944, “In vitro and in silico assessment of new beta amino ketones with antiplasmodial activity” (Revista da Sociedade Brasileira de Medicina Tropical, 2022).
